Experiment [1] relates to PC-3M orthotopic human tumor xenografts. Particulars: combined with radiation; cited from earlier work.
In experiment [2] the target is T1, neurotensin receptor 1 (NTR1) (Homo sapiens, UniProt P30989).
T1 construct: NTR1, which is highly expressed in prostate cancer cells but not in normal prostate epithelial cells; endogenous in cells; PC-3M for the xenograft
Particulars: combined with radiation; cited from earlier work.

Experiment [3] concerns human C4-2 prostate cancer xenografts. Description: Tumor volume growth of C4-2 xenografts treated with SIPP preparations. It is filed as in vivo, nude mice. As to conditions: tumor volume growth curves.
Source text: Tumor volume growth curves for nude mice bearing human C4-2 prostate cancer xenografts treated with various preparations of SIPPs. (A) Black squares, no treatment controls.
For another experiment, the system named is NF-κB. As to conditions: cited from earlier work.

T1 sequence (P30989 whole entry): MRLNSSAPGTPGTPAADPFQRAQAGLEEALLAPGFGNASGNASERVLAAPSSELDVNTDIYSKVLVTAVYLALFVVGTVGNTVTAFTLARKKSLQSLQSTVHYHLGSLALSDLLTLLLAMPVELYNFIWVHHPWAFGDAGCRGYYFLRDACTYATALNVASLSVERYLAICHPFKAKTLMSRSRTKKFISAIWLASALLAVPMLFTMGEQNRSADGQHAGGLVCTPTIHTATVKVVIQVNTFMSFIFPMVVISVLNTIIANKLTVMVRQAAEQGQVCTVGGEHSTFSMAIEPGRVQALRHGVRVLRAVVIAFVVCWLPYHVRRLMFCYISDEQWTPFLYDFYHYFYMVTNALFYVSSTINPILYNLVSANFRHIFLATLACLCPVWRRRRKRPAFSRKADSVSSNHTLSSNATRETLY

As for `COc1cccc(OC)c1-c1cc(C(=O)NC2(C(=O)O)C3CC4CC(C3)CC2C4)nn1-c1ccnc2cc(Cl)ccc12` (centres unmarked) [SR48692], in experiment [1], the radiosensitization of xenografts entry is “efficiently radiosensitizedn” and the tumor burden entry was “significantly reduced tumor burden”. Besides, in experiment [2], the apoptotic cell death result is on record as “increasing apoptotic cell death”; the clonogenic survival entry is recorded as “decreasing clonogenic survival”; the “radiosensitization of prostate cancer cells” value is “sensitized prostate cancer cells in a dose- and time-dependent manner”.
With `CC(=O)O[C@H]1C(=O)[C@@]2(C)[C@H]([C@H](OC(=O)c3ccccc3)[C@]3(O)C[C@H](OC(=O)[C@H](O)[C@@H](NC(=O)c4ccccc4)c4ccccc4)C(C)=C1C3(C)C)[C@]1(OC(C)=O)CO[C@@H]1C[C@@H]2O` [Paclitaxel, paclitaxel], the “effect on tumor growth” value in experiment [3] is “effective”.
As for `C[C@H]1O[C@@H](O[C@H]2[C@@H](O)C[C@H](O[C@H]3[C@@H](O)C[C@H](O[C@H]4CC[C@@]5(C)[C@H](CC[C@@H]6[C@@H]5C[C@@H](O)[C@]5(C)[C@@H](C7=CC(=O)OC7)CC[C@]65O)C4)O[C@@H]3C)O[C@@H]2C)C[C@H](O)[C@@H]1O` [digoxin], the NF-κB inhibition entry in the experiment with NF-κB was “potent inhibitors of NF-κB”.
On to `C[C@H]1O[C@@H](O[C@H]2[C@@H](O)C[C@H](O[C@H]3[C@@H](O)C[C@H](O[C@H]4CC[C@@]5(C)[C@H](CC[C@@H]6[C@@H]5CC[C@]5(C)[C@@H](C7=CC(=O)OC7)CC[C@]65O)C4)O[C@@H]3C)O[C@@H]2C)C[C@H](O)[C@@H]1O` [digitoxin], for which the NF-κB inhibition entry in the experiment on NF-κB is listed as “potent inhibitors of NF-κB”.
